Our source for the IC50 values is patent publication US9533952B2, “N-prop-2-ynyl carboxamide derivatives and their use as TRPA1 antagonists” (Orion Corporation, priority 2012, dated 2017).

This assay concerns the target TRPA1 (Homo sapiens, UniProt O75762). Briefly: Determination of TRPA1 activity in vitro (TRPA1 antagonism in vitro). The class given is cell-based. The settings on record: procedure of Wei et al., Anesthesiology 111 (2009) 147-154.

Chain of TRPA1 (O75762 whole entry): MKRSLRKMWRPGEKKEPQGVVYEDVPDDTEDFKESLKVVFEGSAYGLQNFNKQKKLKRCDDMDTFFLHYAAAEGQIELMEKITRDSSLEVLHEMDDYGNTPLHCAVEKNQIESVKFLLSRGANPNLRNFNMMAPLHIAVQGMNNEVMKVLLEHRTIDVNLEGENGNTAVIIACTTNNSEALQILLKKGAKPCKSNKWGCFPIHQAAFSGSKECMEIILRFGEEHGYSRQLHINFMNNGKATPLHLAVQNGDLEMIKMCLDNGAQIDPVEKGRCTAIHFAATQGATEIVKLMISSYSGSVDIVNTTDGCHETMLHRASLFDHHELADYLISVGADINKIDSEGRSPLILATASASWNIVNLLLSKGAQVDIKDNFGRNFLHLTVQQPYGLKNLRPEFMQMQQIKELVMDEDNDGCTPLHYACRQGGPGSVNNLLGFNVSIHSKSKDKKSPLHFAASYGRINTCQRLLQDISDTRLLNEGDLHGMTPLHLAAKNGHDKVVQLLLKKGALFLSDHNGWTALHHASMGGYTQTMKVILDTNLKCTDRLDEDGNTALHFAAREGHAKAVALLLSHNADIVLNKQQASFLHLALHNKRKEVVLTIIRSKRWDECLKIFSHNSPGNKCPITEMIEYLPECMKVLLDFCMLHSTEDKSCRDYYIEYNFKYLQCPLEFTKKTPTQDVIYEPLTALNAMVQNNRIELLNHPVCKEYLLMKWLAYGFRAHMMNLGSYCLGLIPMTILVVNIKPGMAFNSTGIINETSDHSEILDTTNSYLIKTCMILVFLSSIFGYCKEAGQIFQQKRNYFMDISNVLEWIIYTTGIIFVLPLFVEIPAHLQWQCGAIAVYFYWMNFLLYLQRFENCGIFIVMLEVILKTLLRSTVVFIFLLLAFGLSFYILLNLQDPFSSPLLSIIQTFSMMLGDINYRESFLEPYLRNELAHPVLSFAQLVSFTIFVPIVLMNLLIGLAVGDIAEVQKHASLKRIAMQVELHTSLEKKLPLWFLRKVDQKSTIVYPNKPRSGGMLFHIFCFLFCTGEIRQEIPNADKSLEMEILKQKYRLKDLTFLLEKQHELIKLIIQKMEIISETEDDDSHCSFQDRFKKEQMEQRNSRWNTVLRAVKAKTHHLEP

The compound `C#CC(C)(C)NC(=O)c1cc(C)ccc1NC(C)C` [Example 93, 2-(Isopropylamino)-5-methyl-N-(2-methylbut-3-yn-2-yl)benzamide] displayed an IC50 of 11400 nM.

As to `C#CC(C)(C)NC(=O)c1cc(F)cnc1NCC(F)(F)C(F)(F)F` [Example 29, 5-Fluoro-N-(2-methylbut-3-yn-2-yl)-2-(2,2,3,3-pentafluoropropyl-amino)nicotinamide], the IC50 was determined as 400 nM.

In turn, `C#CC(CC)(CC)NC(=O)c1cccc2c1NCCC2` [Example 120, N-(3-Ethylpent-1-yn-3-yl)-1,2,3,4-tetrahydroquinoline-8-carboxamide] gave an IC50 of 8300 nM.

In the case of `C#CC(C)(CC)NC(=O)c1cccnc1Nc1ccc(F)cc1` (stereo not shown) [Example 198, 2-(4-Fluorophenylamino)-N-(3-methylpent-1-yn-3-yl)nicotinamide], it took 200 nM to reach half-maximal inhibition (IC50).

The compound `C#CC(C)(C)NC(=O)c1cc(C(F)(F)F)ccc1NCC(F)(F)C(F)(F)F` [Example 18, N-(2-Methylbut-3-yn-2-yl)-2-(2,2,3,3,3-pentafluoropropylamino)-5-(trifluoromethyl)benzamide] yielded an IC50 of 300 nM.

In turn, `C#CC(C)(CC)NC(=O)c1cccnc1Nc1ccccc1F` (stereo not shown) [Example 185, 2-(2-Fluorophenylamino)-N-(3-methylpent-1-yn-3-yl)nicotinamide] had an IC50 of 500 nM.

`C#CC(C)(C)NC(=O)c1cccnc1NC(C)(C)C` [Example 101, 2-(tert-Butylamino)-N-(2-methylbut-3-yn-2-yl)nicotinamide] registered a half-inhibitory concentration (IC50) of 11900 nM.

As to `C#CC(C)(C)NC(=O)c1cc(F)ccc1NCCOC(F)(F)F` [Example 53, 5-Fluoro-N-(2-methylbut-3-yn-2-yl)-2-(2-(trifluoromethoxy)-ethylamino)benzamide], half-maximal inhibition (IC50) required 1900 nM.

As for `C#CC(C)(C)NC(=O)c1cc(Cl)cnc1NCCC(F)(F)F` [Example 41, 5-Chloro-N-(2-methylbut-3yn-2-yl)-2-(3,3,3-trifluoropropylamino)-nicotinamide], the concentration for half-maximal inhibition (IC50) was 500 nM.

The compound `C#CC(C)(C)NC(=O)c1cc(F)ccc1NCCCC` [Example 49, 2-(Butylamino)-5-fluoro-N-(2-methylbut-3-yn-2-yl)benzamide] gave an IC50 of 1100 nM.

Turning to “5-Bromo-2-(ethylamino)-N-(2-methylbut-3-yn-2-yl)nicotinanilide [Example 153]”, half-maximal inhibition (IC50) was put at 10400 nM.

In the case of `C#CC(C)(C)NC(=O)c1cc(F)cnc1Nc1ccccc1` [Example 160, 5-Fluoro-N-(2-methylbut-3-yn-2-yl)-2-(phenylamino)nicotinamide], the IC50 turned out to be 1400 nM. Compared with the last compound, the IC50 is about 7.4-fold lower.

`C#CC(C)(C)NC(=O)c1cc(Cl)ccc1NCC(F)(F)F` [Example 14, 5-Chloro-N-(2-methylbut-3-yn-2-yl)-2-(2,2,2-trifluoroethylamino)-benzamide] gave a half-maximal inhibitory concentration (IC50) of 1200 nM.

As for `C#CC(C)(C)NC(=O)c1cccnc1Nc1ccc(F)cc1F` [Example 173, 2-(2,4-Difluorophenylamino)-N-(2-methylbut-3-yn-2-yl)nicotinamide], 1900 nM corresponded to half-maximal inhibition (IC50). This IC50 lies about 1.6-fold higher than the previous one.

As to `C#CC(C)(C)NC(=O)c1cc(F)c(F)cc1NCC(F)(F)F` [Example 38, 4,5-Difluoro-N-(2-methylbut-3-yn-2-yl)-2-(2,2,2-trifluoroethylamino)-benzamide], the IC50 stood at 2500 nM.

For `C#CC(C)(C)NC(=O)c1cc(F)ccc1NC1CC1` [Example 91, 2-(Cyclopropylamino)-5-fluoro-N-(2-methylbut-3-yn-2-yl)benzamide], the IC50 was found to be 7000 nM.

On to `C#CC(C)(C)NC(=O)c1cccnc1NCCc1ccccc1` [Example 142, N-(2-Methylbut-3-yn-2-yl)-2-(phenethylamino)nicotinamide], for which the concentration for half-maximal inhibition (IC50) was 5800 nM. The IC50 values of the last two compounds are within 1.5-fold of each other.

`C#CC(C)(C)NC(=O)c1cc(F)c(F)cc1NCCCC` [Example 42, 2-(Butylamino)-4,5-difluoro-N-(2-methylbut-3-yn-2-yl)benzamide] yielded a concentration for half-maximal inhibition (IC50) of 500 nM.

`C#CC(C)(C)NC(=O)c1ccc(C(F)(F)F)nc1NCC` [Example 107, 2-(Ethylamino)-N-(2-methylbut-3-yn-2-yl)-6-(trifluoromethyl)-nicotinamide]: half-maximal inhibition (IC50) required 3700 nM.

`C#CC(C)(C)NC(=O)c1ccc(C(F)(F)F)nc1NC1CC1` [Example 117, 2-(Cyclopropylamino)-N-(2-methylbut-3-yn-2-yl)-6-(trifluoromethyl)-nicotinamide] yielded a half-inhibitory concentration (IC50) of 2300 nM.

In the case of `C#CC(C)(C)NC(=O)c1cccnc1NC1CC(F)(F)C1` [Example 133, 2-(3,3-Difluorocyclobutylamino)-N-(2-methylbut-3-yn-2-yl)nicotinamide], the IC50 is 5900 nM.

As for `C#CC(C)(C)NC(=O)c1cc(C(F)(F)F)ccc1NCCOC` [Example 48, 2-(2-Methoxyethylamino)-N-(2-methylbut-3-yn-2-yl)-5-(trifluoromethyl)benzamide], the IC50 amounted to 5700 nM.

As for `C#CC(C)(C)NC(=O)c1cc(C(F)(F)F)cnc1NCC(F)F` [Example 56, 2-(2,2-Difluoroethylamino)-N-(2-methylbut-3-yn-2-yl)-5-(trifluoromethyl)nicotinamide], the IC50 was determined as 1600 nM.

Consider `C#CC(C)(C)NC(=O)c1cccnc1Nc1ccc(C)c(F)c1` [Example 149, 2-(3-Fluoro-4-methylphenylamino)-N-(2-methylbut-3-yn-2-yl)nicotinamide], for which the 50% inhibitory concentration (IC50) was determined as 500 nM.

As to `C#CC(C)(C)NC(=O)c1cc(Cl)cc(F)c1NC(C)C` [Example 95, 5-Chloro-3-fluoro-2-(isopropylamino)-N-(2-methylbut-3-yn-2-yl)-benzamide], the IC50 stood at 5600 nM.

`C#CC(C)(CC)NC(=O)c1cc(F)cnc1Nc1cccc(F)c1` (stereo not shown) [Example 176, 5-Fluoro-2-(3-fluorophenylamino)-N-(3-methylpent-1-yn-3-yl)nicotinamide] returned an IC50 of 300 nM.

The compound `C#CC(C)(C)NC(=O)c1cccnc1Nc1cc(OC)ccc1F` [Example 179, 2-(2-Fluoro-5-methoxyphenylamino)-N-(2-methylbut-3-yn-2-yl)nicotinamide] registered a 50% inhibitory concentration (IC50) of 10800 nM.

Consider `C#CC(C)(CC)NC(=O)c1cccnc1Nc1cc(OC)ccc1F` (stereo not shown) [Example 180, 2-(2-Fluoro-5-methoxyphenylamino)-N-(3-methylpent-1-yn-3-yl)nicotinamide], for which the half-inhibitory concentration (IC50) is 1400 nM.

`C#CC(C)(CC)NC(=O)c1cccnc1Nc1cc(OC)ccc1Cl` (stereo not shown) [Example 189, 2-(2-Chloro-5-methoxyphenylamino)-N-(3-methylpent-1-yn-3-yl)nicotinamide]: the 50% inhibitory concentration (IC50) was determined as 3000 nM.

In turn, `C#CC(C)(C)NC(=O)c1cccnc1NCc1cccc(F)c1` [Example 98, 2-(3-Fluorobenzylamino)-N-(2-methylbut-3-yn-2-yl)nicotinamide] showed an IC50 of 5300 nM.

In the case of `C#CC(C)(C)NC(=O)c1cncnc1NCC(F)(F)C(F)(F)F` [Example 132, N-(2-Methylbut-3-yn-2-yl)-4-(2,2,3,3,3-pentafluoropropylamino)-pyrimidine-5-carboxamide], the midpoint of inhibition, the IC50, lay at 13800 nM. This IC50 is about 2.6-fold higher than that of the compound before.

For the compound `C#CC(C)(C)NC(=O)c1cc(F)cnc1NCCC(F)(F)F` [Example 1, 5-Fluoro-N-(2-methylbut-3-yn-2-yl)-2-(3,3,3-trifluoropropylamino)-nicotinamide], the IC50 was found to be 1900 nM.

`C#CC(C)(C)NC(=O)c1cccnc1Nc1cccc(F)c1` [Example 121, 2-(3-Fluorophenylamino)-N-(2-methylbut-3-yn-2-yl)nicotinamide]: the IC50 turned out to be 1100 nM.

`C#CC(C)(C)NC(=O)c1cccnc1Nc1ccc(F)c(OC)c1` [Example 193, 2-(4-Fluoro-3-methoxyphenylamino)-N-(2-methylbut-3-yn-2-yl)nicotinamide] yielded an IC50 of 11100 nM.

`C#CC(C)(C)NC(=O)c1cc(Br)ccc1NCCC` [Example 124, 5-Bromo-NV-(2-methylbut-3-yn-2-yl)-2-(propylamino)benzamide] yielded an IC50 of 500 nM.

Compound `C#CC(C)(CC)NC(=O)c1cc(F)cnc1Nc1ccccc1` (stereo not shown) [Example 172, 5-Fluoro-N-(3-methylpent-1-yn-3-yl)-2-(phenylamino)nicotinamide] showed a 50% inhibitory concentration (IC50) of 300 nM.

On to `C#CC(C)(C)NC(=O)c1cccnc1Nc1cc(F)cc(C#N)c1` [Example 183, 2-(3-Cyano-5-fluorophenylamino)-N-(2-methylbut-3-yn-2-yl)nicotinamide], for which the IC50 stood at 1400 nM.

In turn, `C#CC(C)(CC)NC(=O)c1cccnc1Nc1ccc(F)cc1F` (stereo not shown) [Example 174, 2-(2,4-Difluorophenylamino)-N-(3-methylpent-1-yn-3-yl)nicotinamide] had a concentration for half-maximal inhibition (IC50) of 400 nM.

The compound `C#CC(CC)(CC)NC(=O)c1cc(C(F)(F)F)ccc1NCCOC` [Example 46, N-(3-Ethylpent-1-yn-3-yl)-2-(2-methoxyethylamino)-5-(trifluoro-methyl)benzamide] came in with a 50% inhibitory concentration (IC50) of 500 nM.

`C#CC(C)(C)NC(=O)c1cc(Cl)cnc1NCC(C)(F)F` [Example 59, 5-Chloro-2-(2,2-difluoropropylamino)-N-(2-methylbut-3-yn-2-yl)nicotinamide] registered an IC50 of 2300 nM.

As for `C#CC(C)(C)NC(=O)c1cnccc1Nc1ccc(Cl)cc1` [Example 159, 4-(4-Chlorophenylamino)-N-(2-methylbut-3-yn-2-yl)nicotinamide], the concentration for half-maximal inhibition (IC50) stood at 11400 nM.

For the compound `C#CC(C)(C)NC(=O)c1cc(F)ccc1NCC(F)(F)F` [Example 22, 5-Fluoro-N-(2-methylbut-3-yn-2-yl)-2-(2,2,2-trifluoroethylamino)-benzamide], the IC50 is 7200 nM.

Regarding `C#CC(C)(C)NC(=O)c1cc(C(F)(F)F)cnc1NC(C)C` [Example 28, 2-(Isopropylamino)-N-(2-methylbut-3-yn-2-yl)-5-(trifluoromethyl)-nicotinamide], the half-inhibitory concentration (IC50) turned out to be 1200 nM.

For `C#CC(C)(C)NC(=O)c1cc(F)cnc1NC(C)(C)C` [Example 162, 2-(tert-Butylamino)-5-fluoro-N-(2-methylbut-3-yn-2-yl)nicotinamide], the IC50 is 3700 nM.

`C#CC(C)(C)NC(=O)c1cccnc1Nc1ccc(OC)c(Cl)c1` [Example 150, 2-(3-Chloro-4-methoxyphenylamino)-N-(2-methylbut-3-yn-2-yl)nicotinamide] came in with a half-inhibitory concentration (IC50) of 1900 nM.

The compound `C#CC(C)(C)NC(=O)c1cscc1NCCC` [Example 126, N-(2-Methylbut-3-yn-2-yl)-4-(propylamino)thiophene-3-carboxamide] returned a half-inhibitory concentration (IC50) of 8000 nM.

By IC50 is commonly meant the concentration needed to halve the response being measured.
